Laboratory results as given in patent US20150184246A1, “BIOMARKERS OF RESPONSE TO PROTEASOME INHIBITORS” (Millennium Pharmaceuticals, Inc., priority 2011, published 2015).
Structures can show the parent of a compound that is named as a salt. Where two headings read alike, the source gives them in different places.

Assays:
[1] = tested on: hematological and solid tumor xenograft models; settings: range of hematological and solid tumor xenograft models; cited from earlier work
[2] = tested on: relapsed or refractory multiple myeloma; experiment: APEX phase 3 trial (039), bortezomib versus high-dose dexamethasone, EBMT response criteria; type: in vivo, human; settings: for Complete response / Complete response achieved, number of patients / Median duration of response / One-year survival / complete response plus near-complete response / response rate (complete plus partial response (CR+PR)) / Median time to response: -039 trial; for Median time to response: both groups
Experimental: Patients who received dexamethasone were treated for a maximum of 280 days by the following method: received up to four 5-week treatment cycles, followed by up to five 4-week treatment cycles. Within each 5-week treatment cycle, the patient received dexamethasone 40 mg/day PO, once daily on Days 1 to 4, 9 to 12, and 17 to 20 of a 35-day cycle. Within each 4-week treatment cycle, the patient received dexamethasone 40 mg/day PO once daily on Days 1 to 4 of a 28 day cycle.
The following section presents more detailed information on the -039 trial. During the study, disease response was assessed according to the European Group for Blood and Marrow Transplant (EBMT) criteria as presented in Table 3.
Response and date of disease progression was determined by computer algorithm that integrated data from a central laboratory and case report forms from each clinical site, according to the Blade criteria (Table 3). […] See Richardson et al., supra.
Disease progression was determined by Blade criteria as described in Table 3 and above. […] The date of progression was determined by computer algorithm. P-value from log-rank test adjusted by actual randomization factors. See Richardson et al., supra.

[3] = tested on: multiple myeloma patients (NRAS / KRAS status of tumor); experiment: Pharmacogenomic analysis: pre-treatment NRAS/KRAS mutation status versus response, time-to-progression and overall survival; type: in vivo, human
Text: Patient samples and response criteria from patients participating in these studies, as well as the following additional studies described below were sought for use in pharmacogenomic analyses to identify markers associated with patient survival. […] The bone marrow aspirates were collected prior to the patient's treatment in the studies. […] Dexamethasone is a synthetic adrenocorticosteroid, CAS Registry No. […], administered as tablets (DECADRON® Merck & Co., Inc.). The trials are described in the following paragraphs.
Upon collection of patient bone marrow aspirate, the myeloma cells were enriched via rapid negative selection. The enrichment procedure employs a cocktail of cell-type specific antibodies coupled with an antibody that binds red blood cells RosetteSep (Stem Cell Technologies). The antibody cocktail has antibodies with the following specificity: CD14 (monocytes), CD2 (T and NK cells), CD33 (myeloid progenitors and monocytes), CD41 (platelets and megakaryocytes), CD45RA (naïve B and T cells) and CD66b (granulocytes). The antibodies cross-linked the non-myeloma cell types to the red blood cells in the samples. The bound cell types were removed using a modified ficoll density gradient. Myeloma cells were then collected and frozen. In the international studies, the first two samples from each site were collected and subjected to RNA isolation so that feedback on quantity and quality could be provided; ultimately Phase 2 and 3 trials provided a similar percentage of informative samples. Control bone marrow plasma cell samples were obtained from normal donors (AllCells, Berkeley, Calif.).
Flow through from the RNEASY® column was clarified by centrifugation, then concentrated about 10-fold with centrifugal ultrafilters (MICROCON® centrifugal filter device, YM-30 membrane (30 kDa limit), Millipore Corp. Billerica, Mass.). Impurities were removed using the Qiagen QIAMP® DNA Micro Kit. DNA from the sample was amplified using the Qiagen REPLI-G® WGA kit. Mutation status of DNA from 133 bone marrow tumor biopsies was determined by testing a panel of cancer genes and known tumor suppressors using the Sequenom (San Diego, Calif.) mass spectrometry genotype analysis system.
Rather, the platform interrogated tumor DNA only for specific sequences that were previously implicated in cancer (i.e. ‘hotspot’ mutations), relying largely on the prior knowledge that these are highly relevant in human cancer. The panel of mutations evaluated consisted of the ONCOCARTA™ version 1.0 and custom assays designed in collaboration with Sequenom and Millennium to expand the list of mutations surveyed to 514 known mutations in 41 oncogenes and tumor suppressor genes. Table 5 lists genes with mutations included in the panel and the number in parentheses 0 indicates the approximate number of mutations targeted in assays of the genes.
The custom assays were designed using TYPEPLEX® chemistry with single-base extension which determines the expected mass weight of the extend products to ensure separation between all potential peaks found within a multiplexed reaction. 15 nl of amplified and extended product is spotted on a 384 SpectroCHIP II using a Nanodispenser. A 3-point calibrant is added to every chip to ensure proper performance of the Sequenom Maldi-tof compact mass spectrometer. The SpectroCHIP II is placed in the Sequenom MALDI-TOF compact mass spectrometer. The mass spectrometer is set to fire a maximum of 9 acquisitions for each spot on the 384 well SpectroCHIP. TypePLEX Gold kit SpectroCHIP II is used following manufacturers recommended protocols.
Analysis is performed using Sequenom analysis software, MassARRAY® Typer Analyzer v4 with a mutation call filter of ≧8%, Signal:Noise>5 (background), followed by a manual inspections for false positives due to Impurities (ie Salts). Default threshold for positive mutant call is a minimal 10% mutant allele frequency, though signal as low as 3% may be detected. […]

[4] = tested on: multiple myeloma patients (t(4;14) / NRAS status of tumor); experiment: t(4;14) and NRAS status versus response in patients with tumor subtype data; type: in vivo, human
Text: Table 12 details the t(4;14) and NRAS status of the current dataset for patients both with tumor subtype data (Mulligan et al. (2007) Blood 109:3177-3188) and who were response-evaluable (n=40).

[5] = tested on: relapsed multiple myeloma; settings: cited from earlier work
[6] = tested on: relapsed and refractory myeloma; settings: cited from earlier work
[7] = tested on: t(4;14) translocation in MM; settings: bortezomib alone or in combination; cited from earlier work
[8] = bortezomib n = 315, dexamethasone n = 312
[9] = bortezomib versus dexamethasone
[10] = in this set of patients (pharmacogenomic set)
[11] = totals (all samples of the 2-by-2 table)
[12] = NRAS mutant and not t(4; 14), N=32
[13] = NRAS wild type and not t(4; 14), N=32

CC(C)C[C@H](NC(=O)CNC(=O)c1cc(Cl)ccc1Cl)B1OC(=O)C(CC(=O)O)(CC(=O)O)O1 [Ixazomib citrate, 2,2′-{2-[(1R)-1-({[(2,5dichlorobenzoyl)amino]acetyl}amino)-3-methylbutyl]-5-oxo-1,3,2-dioxaborolane-4,4-diyl}diacetic acid]
anti-tumor activity [1]: has anti-tumor activity

CC(C)C[C@H](NC(=O)[C@H](Cc1ccccc1)NC(=O)c1cnccn1)B(O)O [bortezomib, N(pyrazine)carbonyl-L-phenylalanine-L-leucine boronic acid]
Complete response [2]: 6%
Complete response achieved, number of patients [2]: 20 patients
Median duration of response [2]: 8 months
One-year survival [2]: 80%
complete response plus near-complete response [2]: 13%
response rate (complete plus partial response (CR+PR)) [2]: 38%
Median time to response [2]: 43 days
decrease in risk of death ([2]; bortezomib group versus dexamethasone, first year after enrollment): 41%
Best Confirmed Response: CR + PR + MR [2, 8]: 146 (46) n (%)
Best Confirmed Response: Complete Response [2, 8]: 20 (6) n (%)
Best Confirmed Response: Minor Response [2, 8]: 25 (8) n (%)
Best Confirmed Response: Near CR: IF+ [2, 8]: 21 (7) n (%)
Best Confirmed Response: No Change [2, 8]: 137 (43) n (%)
Best Confirmed Response: Not Evaluable [2, 8]: 10 (3) n (%)
Best Confirmed Response: Overall Response Rate (CR + PR) [2, 8]: 121 (38) n (%)
Best Confirmed Response: Progressive Disease [2, 8]: 22 (7) n (%)
Best Confirmed Response: SWOG Remission [2, 8]: 46 (15) n (%)
Difference (95% CI) in CR + PR + MR [2, 9]: 0.12 (0.04, 0.19)
Difference (95% CI) in Complete Response [2, 9]: 0.06 (0.03, 0.09)
Difference (95% CI) in Minor Response [2, 9]: −0.09 (−0.14, −0.04)
Difference (95% CI) in Near CR: IF+ [2, 9]: 0.06 (0.03, 0.09)
Difference (95% CI) in No Change [2, 9]: −0.04 (−0.12, 0.04)
Difference (95% CI) in Not Evaluable [2, 9]: −0.01 (−0.04, 0.02)
Difference (95% CI) in Overall Response Rate (CR + PR) [2, 9]: 0.20 (0.14, 0.27)
Difference (95% CI) in Partial Response [2, 9]: 0.15 (0.08, 0.21)
Difference (95% CI) in Progressive Disease [2, 9]: −0.06 (−0.11, −0.01)
Difference (95% CI) in SWOG Remission [2, 9]: 0.09 (0.05, 0.14)
Non-response, number of patient samples ([3]; KRAS mutant): 8
Response, number of patient samples ([3]; KRAS mutant): 9
Non-response, number of patient samples ([3]; KRAS wild type): 34
Response, number of patient samples ([3]; KRAS wild type): 23
Non-response, number of patient samples ([3]; NRAS mutant): 14
Response, number of patient samples ([3]; NRAS mutant): 1
Non-response, number of patient samples ([3]; NRAS wild type): 28
Response, number of patient samples ([3]; NRAS wild type): 31
CR+PR rate [3, 10]: 32%
overall response rate [3, 10]: 42.3%
time-to-progression after bortezomib treatment ([3]; patients whose pre-treatment bone marrow tumor samples had NRAS mutations): significantly lower
Non-response, number of patient samples [3, 11]: 42
Response, number of patient samples [3, 11]: 32
Non-response, number of patients [4, 12]: 10
Response, number of patients [4, 12]: 0
Non-response, number of patients ([4]; NRAS mutant, n = 40 cohort): 10
Response, number of patients ([4]; NRAS mutant, n = 40 cohort): 1
Non-response, number of patients [4, 13]: 11
Response, number of patients [4, 13]: 11
Non-response, number of patients ([4]; NRAS wild type, n = 40 cohort): 13
Response, number of patients ([4]; NRAS wild type, n = 40 cohort): 16
Non-response, number of patients ([4]; Other subtypes, n = 40 cohort): 21
Response, number of patients ([4]; Other subtypes, n = 40 cohort): 11
Non-response, number of patients ([4]; t(4; 14), n = 40 cohort): 2
Response, number of patients ([4]; t(4; 14), n = 40 cohort): 6
complete response (CR)+partial response (PR) rate ([5]; bortezomib 1.0 mg/m^2, Study -024): 30%
complete response (CR)+partial response (PR) rate ([5]; bortezomib 1.3 mg/m^2, Study -024): 38%
CR+PR+MR, number of patients ([6]; Study -025, of 193 patients): 67 patients
CR+PR, number of patients ([6]; Study -025, of 193 patients): 53 patients
CR+PR rate to bortezomib alone ([6]; Study -025): 27%
overall response rate (CR+PR+minimal response (MR)) to bortezomib alone ([6]; Study -025): 35%
effect on poor prognosis associated with the t(4;14) translocation [7]: at least partially overcomes the poor prognosis

C[C@@H]1C[C@H]2[C@@H]3CCC4=CC(=O)C=C[C@]4(C)[C@@]3(F)[C@@H](O)C[C@]2(C)[C@@]1(O)C(=O)CO [dexamethasone]
Complete response [2]: < 1%
Complete response achieved, number of patients [2]: 2 patients
Median duration of response [2]: 5.6 months
One-year survival [2]: 66%
complete response plus near-complete response [2]: 2%
response rate (complete plus partial response (CR+PR)) [2]: 18%
Median time to response [2]: 43 days
Best Confirmed Response: CR + PR + MR [2, 8]: 108 (35) n (%)
Best Confirmed Response: Complete Response [2, 8]: 2 (<1) n (%)
Best Confirmed Response: Minor Response [2, 8]: 52 (17) n (%)
Best Confirmed Response: Near CR: IF+ [2, 8]: 3 (<1) n (%)
Best Confirmed Response: No Change [2, 8]: 149 (48) n (%)
Best Confirmed Response: Not Evaluable [2, 8]: 14 (4) n (%)
Best Confirmed Response: Overall Response Rate (CR + PR) [2, 8]: 56 (18) n (%)
Best Confirmed Response: Partial Response [2, 8]: 54 (17) n (%)
Best Confirmed Response: Progressive Disease [2, 8]: 41 (13) n (%)
Best Confirmed Response: SWOG Remission [2, 8]: 17 (5) n (%)
Non-response, number of patient samples ([3]; KRAS mutant): 6
Response, number of patient samples ([3]; KRAS mutant): 3
Non-response, number of patient samples ([3]; KRAS wild type): 14
Response, number of patient samples ([3]; KRAS wild type): 8
Non-response, number of patient samples ([3]; NRAS mutant): 3
Response, number of patient samples ([3]; NRAS mutant): 3
Non-response, number of patient samples ([3]; NRAS wild type): 17
Response, number of patient samples ([3]; NRAS wild type): 8
Non-response, number of patient samples [3, 11]: 20
Response, number of patient samples [3, 11]: 11
